Legend:
Assay type in all cases: cell-based
Ki67 = Ki67 immunolabelling of treated Episkin reconstructed epidermis
Protocol: (§1) The reconstructed epidermises, received from the Episkin company at six days of reconstruction, were placed back into culture, when received, in 3.5 ml of differentiation medium (Episkin™ medium) under insert (in emersion) in an incubator for 48 hours (37° C., 5% CO2).
(§2) The epidermises were subsequently contacted with the test compounds systemically. The Episkin™ differentiation culture medium is replaced by a differentiation medium containing the test compounds with 0.1% of final DMSO vehicle. The epidermises were placed back into culture in the incubator for 48 hours. A new systemic treatment is carried out for a further 72 hours in culture in the incubator.
(§3) For the treatment on Episkin™, each test compound was prepared at the time of use by being weighed out and dissolved at 10 mM in DMSO, then used to treat 3 samples of reconstructed epidermis. […] The positive controls used were vitamin D3, retinol and calcipotriol (a vitamin D3 analogue).
(§4) The epidermises were withdrawn (3 epidermises per treatment) for histological analysis and protein extracts (a single reconstructed epidermis is used for the histological study and the protein extract).
The samples of epidermis were enclosed in OCT for freezing in liquid nitrogen and then stored at −80° C. […]

[1] = test system: Episkin™ reconstructed epidermis; assay: HES morphological observation of treated Episkin reconstructed epidermis; conditions: systemic treatment over 5 days
Protocol: as §1, §2, §3, §4
Morphological control of the reconstructed epidermises treated was carried out using HES (Hematoxylin—Eosin—Saffron) staining in accordance with a standard protocol on the histological sections of the samples enclosed in paraffin (toluene bath: thrice 15 minutes; 100° alcohol baths; twice one minute; 95° alcohol baths: one minute; rinsing in water baths; hematoxylin bath: once 2 minutes; rinsing in water baths; brief immersion in a hydrochloric acid bath; rinsing with water; eosin bath: once one minute; rinsing with water; brief immersion in a 100° alcohol bath; saffron bath (5 minutes); brief immersion in a 100° alcohol bath; toluene bath: thrice 2 minutes).

CD44 = CD44 immunolabelling of treated Episkin reconstructed epidermis; conditions: for CD44: Episkin, systemic treatment over 5 days, effect generally rated for the highest concentration used (10 μM)
Protocol: as §1, §2
For the treatment on Episkin™, each test compound was prepared at the time of use by being weighed out and dissolved at 10 mM in DMSO, then used to treat 3 samples of reconstructed epidermis. Furthermore, each compound under test was employed at a final 1 and […] in the culture medium (0.1% final DMSO). The positive controls used were vitamin D3, retinol and calcipotriol (a vitamin D3 analogue).
as §4
The samples of epidermis were enclosed in OCT for freezing in liquid nitrogen and then stored at −80° C. The resulting blocks were cut to a thickness of 7 μm using a cryostat, and the slices were dried and stored at −20° C. while awaiting immunolabelling.
The labels selected for the immunolabelling are as follows: • Ki67 to provide information on any change in cell proliferation in the basal layer, and • CD44 to provide information on any change in the metabolism of the living layers and in the proliferation/differentiation balance.

[2] = effect generally rated for the highest concentration used (10 μM)

Structure (SMILES) | Ki67 (Ki67; Episkin, systemic treatment over 5 days, 100 μM) | HES ([1]; 100 μM) | HES [1, 2] | CD44 (CD44) | CD44 immunolabelling (CD44; Episkin samples treated, FIG. 3) | Ki67 labelling (Ki67; Episkin samples treated, FIG. 2)
CC1=C(/C=C/C(C)=C/C=C/C(C)=C/CO)C(C)(C)CCC1 [Retinol, retinol, reference compound] | 0 | 0 |  |  |  | 
C=C1CC[C@H](O)C/C1=C/C=C1\CCC[C@]2(C)[C@@H]([C@H](C)CCCC(C)C)CC[C@@H]12 [Vitamin D3, vitamin D3, reference compound] |  |  | 0 |  |  | 
CCOC(=O)C1=C(C)Nc2c(c(=O)n(C)c(=O)n2C)C1c1cccc(Oc2ccccc2)c1 (stereo not drawn) [Compound (2)] |  |  | 0 | 0 |  | 
CCOC(=O)C1=C(C)Nc2c(c(=O)n(C)c(=O)n2C)C1CC(C)C (stereo not drawn) [Compound (4)] |  |  | 0 | ++ (*) | increase in CD44 | strong increase in Ki67 labelling

From patent publication US9464080B2, “Substituted pyrido[2,3-d]pyrimidines for dry skin and anti-ageing application” (L'OREAL, priority 2012, dated 2016)
